PubChem BioAssay (NCI)
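GI50 = concentration required for 50% inhibition of growth. The concentration for full growth arrest is given as TGI.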

Key:
Assay in all cases: NCI-60 cell line screen, 384-well format
[1] = tested on: CCRF-CEM leukemia
[2] = tested on: IGROV1 ovarian
[3] = tested on: K-562 leukemia
[4] = tested on: MDA-MB-435 melanoma
[5] = tested on: MALME-3M melanoma
[6] = tested on: OVCAR-5 ovarian
[7] = tested on: HCC-2998 colon
[8] = tested on: 786-0 renal
[9] = tested on: SN12C renal
[10] = tested on: RXF 393 renal
[11] = tested on: SNB-19 CNS
[12] = tested on: HOP-62 NSCLC
[13] = tested on: SK-MEL-28 melanoma
[14] = tested on: NCI-H322M lung
[15] = tested on: A549 NSCLC
[16] = tested on: SR leukemia
[17] = tested on: SF-268 CNS
[18] = tested on: PC-3 prostate
[19] = tested on: HL-60(TB) leukemia
[20] = tested on: RPMI-8226 leukemia
[21] = tested on: SK-MEL-5 melanoma
[22] = tested on: MOLT-4 leukemia
[23] = tested on: HOP-92 NSCLC
[24] = tested on: SK-OV-3 ovarian
[25] = tested on: OVCAR-8 ovarian
[26] = tested on: A498 renal
[27] = tested on: T-47D breast
[28] = tested on: LOX IMVI melanoma
[29] = tested on: UACC-257 melanoma
[30] = tested on: NCI-H23 lung
[31] = tested on: U251 glioblastoma
[32] = tested on: SF-295 CNS
[33] = tested on: NCI-H522 lung
[34] = tested on: CAKI-1 renal
[35] = tested on: MDA-MB-231 breast
[36] = tested on: OVCAR-3 ovarian
[37] = tested on: MCF7 breast
[38] = tested on: HCT-15 colon
[39] = tested on: COLO 205 colon
[40] = tested on: KM12 colon
[41] = tested on: UO-31 renal
[42] = tested on: ACHN renal
[43] = tested on: TK-10 renal
[44] = tested on: MDA-MB-468 breast
[45] = tested on: HT29 colon
[46] = tested on: OVCAR-4 ovarian
[47] = tested on: DU-145 prostate
[48] = tested on: NCI-H226 lung
[49] = tested on: SNB-75 CNS
[50] = tested on: NCI-H460 NSCLC
[51] = tested on: SF-539 CNS
[52] = tested on: BT-549 breast
[53] = tested on: HS 578T breast
[54] = tested on: EKVX NSCLC
[55] = tested on: M14 melanoma
[56] = tested on: UACC-62 melanoma
[57] = tested on: NCI/ADR-RES ovarian
[58] = tested on: SW-620 colon

NCC(=O)Nc1ccc(-n2nc(C(F)(F)F)cc2-c2ccc3c(ccc4ccccc43)c2)cc1
GI50 [1]: 0.218 µM | TGI [1]: 1.72 µM | GI50 [2]: 1.09 µM | TGI [2]: 2.3 µM | GI50 [3]: 0.218 µM | TGI [3]: 1.52 µM | GI50 [4]: 1.11 µM | TGI [4]: 2.33 µM | GI50 [5]: 1.16 µM | TGI [5]: 2.39 µM | GI50 [6]: 1.66 µM | TGI [6]: 3.04 µM | GI50 [7]: 1.06 µM | TGI [7]: 2.25 µM | GI50 [8]: 1.02 µM | TGI [8]: 2.2 µM | GI50 [9]: 1.42 µM | TGI [9]: 2.74 µM | GI50 [10]: 1.27 µM | TGI [10]: 2.53 µM | GI50 [11]: 1.52 µM | TGI [11]: 2.86 µM | GI50 [12]: 1.13 µM | TGI [12]: 2.36 µM | GI50 [13]: 1.12 µM | TGI [13]: 2.32 µM | GI50 [14]: 1.42 µM | TGI [14]: 2.74 µM | GI50 [15]: 1.04 µM | TGI [15]: 2.23 µM | GI50 [16]: 0.0306 µM | TGI [16]: 0.104 µM | GI50 [17]: 1.05 µM | TGI [17]: 2.24 µM | GI50 [18]: 1.19 µM | TGI [18]: 2.43 µM | GI50 [19]: 0.272 µM | TGI [19]: 1.17 µM | GI50 [20]: 0.213 µM | TGI [20]: 0.686 µM | GI50 [21]: 1.12 µM | TGI [21]: 2.33 µM | GI50 [22]: 0.0441 µM | TGI [22]: 0.148 µM | GI50 [23]: 1.12 µM | TGI [23]: 2.33 µM | GI50 [24]: 1.57 µM | TGI [24]: 2.92 µM | GI50 [25]: 1.13 µM | TGI [25]: 2.36 µM | GI50 [26]: 1.55 µM | TGI [26]: 2.9 µM | GI50 [27]: 1.54 µM | TGI [27]: 2.88 µM | GI50 [28]: 0.396 µM | TGI [28]: 1.47 µM | GI50 [29]: 1.25 µM | TGI [29]: 2.51 µM | GI50 [30]: 1.76 µM | TGI [30]: 3.15 µM | GI50 [31]: 1.19 µM | TGI [31]: 2.46 µM | GI50 [32]: 0.766 µM | TGI [32]: 2.04 µM | GI50 [33]: 1.07 µM | TGI [33]: 2.27 µM | GI50 [34]: 1.18 µM | TGI [34]: 2.43 µM | GI50 [35]: 0.405 µM | TGI [35]: 2.01 µM | GI50 [36]: 1.57 µM | TGI [36]: 2.92 µM | GI50 [37]: 0.904 µM | TGI [37]: 2.12 µM | GI50 [38]: 0.0821 µM | TGI [38]: 1.75 µM | GI50 [39]: 0.535 µM | TGI [39]: 1.8 µM | GI50 [40]: 1.14 µM | TGI [40]: 2.37 µM | GI50 [41]: 1.39 µM | TGI [41]: 2.74 µM | GI50 [42]: 1.18 µM | TGI [42]: 2.43 µM | GI50 [43]: 1.32 µM | TGI [43]: 2.61 µM | GI50 [44]: 1.53 µM | TGI [44]: 2.87 µM | GI50 [45]: 1.09 µM | TGI [45]: 2.29 µM | GI50 [46]: 1.62 µM | TGI [46]: 2.98 µM | GI50 [47]: 1.31 µM | TGI [47]: 2.61 µM | GI50 [48]: 1.6 µM | TGI [48]: 2.96 µM | GI50 [49]: 1.08 µM | TGI [49]: 2.29 µM | GI50 [50]: 0.296 µM | TGI [50]: 1.44 µM | GI50 [51]: 1.16 µM | TGI [51]: 2.4 µM | GI50 [52]: 1.33 µM | TGI [52]: 2.62 µM | GI50 [53]: 1.76 µM | TGI [53]: 3.16 µM | GI50 [54]: 1.77 µM | TGI [54]: 3.17 µM | GI50 [55]: 1.27 µM | TGI [55]: 2.54 µM | GI50 [56]: 1.23 µM | TGI [56]: 2.48 µM | GI50 [57]: 1.07 µM | TGI [57]: 2.25 µM | GI50 [58]: 0.965 µM | TGI [58]: 2.16 µM

CN(C)c1cc2c(cc1Sc1nc3c(N)nccc3n1CCNCC(C)(C)C)OCO2
GI50 [1]: 0.118 µM | TGI [1]: 0.312 µM | GI50 [2]: 0.27 µM | TGI [2]: 0.742 µM | GI50 [3]: 0.199 µM | TGI [3]: 0.737 µM | GI50 [4]: 0.447 µM | TGI [4]: 15.3 µM | GI50 [5]: 0.241 µM | TGI [5]: 0.548 µM | GI50 [6]: 0.39 µM | TGI [6]: 9.75 µM | GI50 [7]: 0.183 µM | TGI [7]: 0.419 µM | GI50 [8]: 0.28 µM | TGI [8]: 0.963 µM | GI50 [9]: 0.221 µM | TGI [9]: 0.506 µM | GI50 [10]: 0.127 µM | TGI [10]: 0.348 µM | GI50 [11]: 0.423 µM | TGI [11]: 6.84 µM | GI50 [12]: 0.292 µM | TGI [12]: 0.934 µM | GI50 [13]: 0.327 µM | TGI [13]: 11.9 µM | GI50 [14]: 0.299 µM | TGI [14]: 14.8 µM | GI50 [15]: 0.131 µM | TGI [15]: 12.1 µM | GI50 [16]: 0.0628 µM | TGI [16]: 0.197 µM | GI50 [17]: 0.221 µM | TGI [17]: 11.1 µM | GI50 [18]: 0.229 µM | TGI [18]: 0.517 µM | GI50 [19]: 0.111 µM | TGI [19]: 0.241 µM | GI50 [20]: 0.135 µM | TGI [20]: 0.291 µM | GI50 [21]: 0.0798 µM | TGI [21]: 1.45 µM | GI50 [22]: 0.0589 µM | TGI [22]: 0.192 µM | GI50 [23]: 0.183 µM | TGI [23]: 0.503 µM | GI50 [24]: 0.231 µM | TGI [24]: 10.8 µM | GI50 [25]: 0.174 µM | TGI [25]: 0.349 µM | GI50 [26]: 0.0829 µM | TGI [26]: 11.9 µM | GI50 [27]: 0.35 µM | TGI [27]: 10.5 µM | GI50 [28]: 0.177 µM | TGI [28]: 0.33 µM | GI50 [29]: 0.507 µM | TGI [29]: 4.14 µM | GI50 [30]: 0.134 µM | TGI [30]: 0.467 µM | GI50 [31]: 0.352 µM | TGI [31]: 1.42 µM | GI50 [32]: 0.218 µM | TGI [32]: 0.499 µM | GI50 [33]: 0.191 µM | TGI [33]: 0.377 µM | GI50 [34]: 0.449 µM | TGI [34]: 15.8 µM | GI50 [35]: 0.231 µM | TGI [35]: 0.608 µM | GI50 [36]: 0.234 µM | TGI [36]: 0.631 µM | GI50 [37]: 0.0895 µM | TGI [37]: 1.68 µM | GI50 [38]: 0.144 µM | TGI [38]: 8.64 µM | GI50 [39]: 0.0664 µM | TGI [39]: 0.325 µM | GI50 [40]: 0.171 µM | TGI [40]: 6.35 µM | GI50 [41]: 0.683 µM | TGI [41]: 19.5 µM | GI50 [42]: 0.376 µM | TGI [42]: 13.2 µM | GI50 [43]: 0.4 µM | TGI [43]: 5.55 µM | GI50 [44]: 0.307 µM | TGI [44]: 0.507 µM | GI50 [45]: 0.188 µM | TGI [45]: 2.26 µM | GI50 [46]: 0.324 µM | TGI [46]: 0.883 µM | GI50 [47]: 0.228 µM | TGI [47]: 1.13 µM | GI50 [48]: 0.387 µM | TGI [48]: 13.2 µM | GI50 [49]: 0.273 µM | TGI [49]: 0.553 µM | GI50 [50]: 0.138 µM | TGI [50]: 0.297 µM | GI50 [51]: 0.236 µM | TGI [51]: 0.541 µM | GI50 [52]: 0.118 µM | TGI [52]: 0.664 µM | GI50 [53]: 0.261 µM | TGI [53]: 0.769 µM | GI50 [54]: 0.344 µM | TGI [54]: 11.8 µM | GI50 [55]: 0.303 µM | TGI [55]: 3.44 µM | GI50 [56]: 0.226 µM | TGI [56]: 0.59 µM | GI50 [57]: 0.28 µM | TGI [57]: 0.625 µM | GI50 [58]: 0.215 µM | TGI [58]: 0.715 µM
